Laboratory results taken from PubChem BioAssay (NCI).
“And” between values parts separate entries of the source, which are not always exact repeats. Identical values can stand only once.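 Where inhibition never reached the appropriate level, the endpoint shown equals the highest concentration tested. Otherwise, values were interpolated linearly from a five-concentration, 48-hour dose response in 96-well plates. The concentration for 50% growth inhibition is given as GI50. The concentration for full growth arrest is given as TGI.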

What was measured:
Assay in all cases: DTP human tumour cell line panel, 48 h
[1] = test system: NCI-H460 lung
[2] = test system: SR leukemia
[3] = test system: A549 NSCLC
[4] = test system: IGROV1 ovarian
[5] = test system: OVCAR-3 ovarian
[6] = test system: CCRF-CEM leukemia
[7] = test system: SK-MEL-5 melanoma
[8] = test system: MDA-MB-435
[9] = test system: SF-268 CNS
[10] = test system: SF-295 CNS

SMILES | GI50 [1] [µM] | TGI [1] | GI50 [2] | TGI [2] | GI50 [3] | TGI [3] | GI50 [4] | TGI [4] | GI50 [5] | TGI [5] | GI50 [6] [µM] | TGI [6] | GI50 [7] | TGI [7] | GI50 [8] [µM] | TGI [8] | GI50 [9] | TGI [9] | GI50 [10] | TGI [10]
Fc1cnccc1-c1nc2ccc3[nH]ncc3c2c2c1CCCC2 | 1.41 | 7.74 µM | 0.519 µM | 5.08 µM | 1.25 µM | > 100 µM | 0.688 µM | 11.2 µM | 2.46 µM | 10.9 µM | 1.84 | > 100 µM | 2.35 µM | > 100 µM | 1.25 | > 100 µM | 1.99 µM | 9.82 µM | 2.53 µM | > 100 µM
C=C(C)[C@@H]1CC[C@]2(C(=O)OC)CC[C@]3(C)[C@H](CC[C@@H]4[C@@]5(C)CC/C(=N\OCCC(=NCCC#N)NOCCC#N)C(C)(C)[C@@H]5CC[C@]43C)[C@@H]12 | 11.1 | > 50 µM | 2.87 µM | 16.5 µM | 5.27 µM | > 50 µM | 14.9 µM | > 50 µM | 5.17 µM | 15.8 µM | 11.7 | > 50 µM | 3.02 µM | 10 µM | 9.7 | > 50 µM | 11.4 µM | > 50 µM | 21.4 µM | > 50 µM
N=C(N)c1ccc(-c2ccc(-c3cccs3)s2)cc1F | 0.0436 | 1.05 µM | 0.341 µM | 1.07 µM | 0.0305 µM | 1.27 µM | 2.28 µM | 4.74 µM | 1.47 µM | 3.09 µM | 1.58 | 3.46 µM | 1.27 µM | 2.69 µM | 1.13 | 2.37 µM | 1.65 µM | 3.37 µM | 0.39 µM | 1.78 µM
COC(=O)[C@@H](C)C[C@H](Cc1ccccc1)NC(=O)c1nc([C@@H](C[C@H](C(C)C)N(C)C(=O)[C@@H](NC(=O)[C@H]2CC(=O)CCN2C)C(C)C)OC(C)=O)sc1C(C)C | 0.27 | > 5.85 µM | 0.021 µM | > 16.7 µM | 0.775 µM | > 16.7 µM | 0.111 µM | > 13.5 µM | 0.0542 µM | 0.62 µM | 0.37 | > 16.7 µM | 0.0869 µM | 1.76 µM | 0.0169 | 0.0921 µM | 0.531 µM | > 16.7 µM | 0.277 µM | 3.02 µM
CCN(CC)CCN1C(=O)c2cccc3cc(N)cc(c23)C1=O |  | 18.2 µM |  | 39.8 µM |  | > 100 µM |  | > 100 µM |  | 44.3 µM |  | > 100 µM |  | 26.6 µM |  | 22.2 µM |  | > 100 µM |  | 32.5 µM
CC1(C)CC[C@]2(C(=O)O)CC[C@]3(C)C(=CC[C@@H]4[C@@]5(C)C/C(=C/c6cccnc6)[C@H](O)C(C)(C)[C@@H]5CC[C@]43C)[C@@H]2C1 | 4.14 | 26.4 µM | 13.2 µM | > 100 µM | 3.65 µM | > 100 µM | 5.13 µM | > 100 µM | 7.08 µM | 25.6 µM | 2.88 | 18.5 µM | 6.71 µM | 23.2 µM | 15.2 | > 100 µM | 8.68 µM | > 100 µM | 4.3 µM | 87.4 µM
CC[C@@]12CC(C(=O)OC)=C3Nc4ccccc4[C@@]34CCN(C[C@H]3O[C@H]31)[C@@H]24 | 46.6 | > 100 µM | 24 µM | > 100 µM | 58.3 µM | > 100 µM | 52.3 µM | > 100 µM | 78.5 µM | > 100 µM | 33.9 | > 100 µM | 21.2 µM | 57.7 µM | 16.2 | 44.1 µM | > 100 µM | > 100 µM | 36.7 µM | > 100 µM
O=C(/C=C/c1ccccc1)c1ccccn1 |  | 32.7 µM and 49.1 µM | 1.96 µM and 7.94 µM | 7.7 µM and 54.6 µM |  | 46.1 µM and > 100 µM |  | 22.8 µM and 37.9 µM |  | 26.8 µM and 43.3 µM |  | 45.4 µM and 57.6 µM |  | 28.5 µM and 88.6 µM |  | 44.7 µM and 88.7 µM | 18.8 µM and 2.66 µM | 49.8 µM and 43.9 µM |  | 33.9 µM and 59.9 µM
Nc1nc(N)c2nc(CNc3ccc(C(=O)NC(CCC(=O)O)C(=O)O)cc3)cnc2n1 (configuration not stated) | < 0.01 | > 100 µM | < 0.01 µM | > 100 µM | 0.032 µM and < 0.01 µM | > 100 µM | 0.0651 µM and < 0.01 µM | > 100 µM | 0.0695 µM and 0.0295 µM | > 100 µM | < 0.01 | > 100 µM | 0.0585 µM and 0.0309 µM | > 100 µM | < 0.01 | > 100 µM | 0.02 µM and < 0.01 µM | > 100 µM | 0.0327 µM and < 0.0134 µM | > 100 µM
FC(F)(F)c1ccc(-c2cnc(-c3nn[nH]n3)nc2NC2CCCCCC2)cc1 | > 10 | > 10 µM | > 10 µM | > 10 µM | > 10 µM | > 10 µM | > 10 µM | > 10 µM | > 10 µM | > 10 µM | > 10 | > 10 µM | > 10 µM | > 10 µM | > 10 | > 10 µM | > 10 µM | > 10 µM | > 10 µM | > 10 µM
CCCCCCCCCCCCNC(=O)N[C@H](C(=O)N[C@H]1/C=C/OCCNC(=O)/C=C/[C@H](C(C)C)NC1=O)C(C)C | 6.16 | 61.3 µM | 0.393 µM | 20.9 µM | 32.3 µM | > 100 µM | 2.12 µM | > 100 µM | 0.568 µM | > 78.7 µM | 2.16 | > 100 µM | 2.03 µM | 14.8 µM | 1.48 | > 100 µM | 7.99 µM | > 100 µM | 21.4 µM | > 100 µM
CN(C)c1ccc(-c2cc(-c3cccc(NS(C)(=O)=O)c3)nc(N)c2C#N)cc1 | 0.0378 | 18.6 µM | 0.0359 µM | 26.7 µM | 0.0537 µM | > 56.2 µM | 0.0624 µM | 30.8 µM | 0.0226 µM | 0.0568 µM | 0.0379 | > 100 µM | 0.0414 µM | 0.997 µM | 0.0122 | 0.035 µM | 0.0561 µM | 28.9 µM | 0.0274 µM | 3.95 µM
